± gives the expanded uncertainty stated by the source.
Test: xn = mol fraction of the nth substance listed
Conditions: 101 kPa, Liquid; for speed of sound: Sing-around technique in a fixed-path interferometer; for mass density: Vibrating tube method; for viscosity: Capillary tube (Ostwald / Ubbelohde) method

## CCCCCCCCCCCCCCCC [hexadecane] + CCCCCCCCO
293.15 K, x2 = 0
  speed of sound: 1338.6 ± 0.8 m/s
  mass density: 770.456 ± 0.42 kg/m3
293.15 K, x2 = 0.0461
  speed of sound: 1337 ± 0.8 m/s
  mass density: 771.581 ± 0.42 kg/m3
293.15 K, x2 = 0.1039
  speed of sound: 1335.7 ± 0.8 m/s
  mass density: 773.103 ± 0.42 kg/m3
293.15 K, x2 = 0.1547
  speed of sound: 1334.7 ± 0.8 m/s
  mass density: 774.574 ± 0.42 kg/m3
293.15 K, x2 = 0.1944
  speed of sound: 1334.3 ± 0.8 m/s
  mass density: 775.766 ± 0.42 kg/m3
293.15 K, x2 = 0.2685
  speed of sound: 1333.7 ± 0.8 m/s
  mass density: 778.197 ± 0.42 kg/m3
293.15 K, x2 = 0.3383
  speed of sound: 1333.5 ± 0.8 m/s
  mass density: 780.693 ± 0.42 kg/m3
293.15 K, x2 = 0.4099
  speed of sound: 1333.3 ± 0.8 m/s
  mass density: 783.479 ± 0.42 kg/m3
293.15 K, x2 = 0.4981
  speed of sound: 1333.5 ± 0.8 m/s
  mass density: 787.31 ± 0.42 kg/m3
293.15 K, x2 = 0.6017
  speed of sound: 1334.2 ± 0.8 m/s
  mass density: 792.441 ± 0.42 kg/m3
293.15 K, x2 = 0.6927
  speed of sound: 1335.8 ± 0.8 m/s
  mass density: 797.621 ± 0.42 kg/m3
293.15 K, x2 = 0.7963
  speed of sound: 1338.5 ± 0.8 m/s
  mass density: 804.426 ± 0.42 kg/m3
293.15 K, x2 = 0.8445
  speed of sound: 1340.1 ± 0.8 m/s
  mass density: 808.003 ± 0.42 kg/m3
293.15 K, x2 = 0.895
  speed of sound: 1342.2 ± 0.8 m/s
  mass density: 812.077 ± 0.42 kg/m3
293.15 K, x2 = 0.9529
  speed of sound: 1344.9 ± 0.8 m/s
  mass density: 817.221 ± 0.42 kg/m3
298.15 K, x2 = 0
  viscosity: 3.041 ± 0.019 mPa·s
298.15 K, x2 = 0.0461
  viscosity: 3.073 ± 0.019 mPa·s
298.15 K, x2 = 0.1039
  viscosity: 3.089 ± 0.019 mPa·s
298.15 K, x2 = 0.1547
  viscosity: 3.096 ± 0.019 mPa·s
298.15 K, x2 = 0.1944
  viscosity: 3.107 ± 0.019 mPa·s
298.15 K, x2 = 0.2685
  viscosity: 3.175 ± 0.019 mPa·s
298.15 K, x2 = 0.3383
  viscosity: 3.29 ± 0.02 mPa·s
298.15 K, x2 = 0.4099
  viscosity: 3.472 ± 0.021 mPa·s
298.15 K, x2 = 0.4981
  viscosity: 3.768 ± 0.023 mPa·s
298.15 K, x2 = 0.6017
  viscosity: 4.223 ± 0.026 mPa·s
298.15 K, x2 = 0.6927
  viscosity: 4.714 ± 0.028 mPa·s
298.15 K, x2 = 0.7963
  viscosity: 5.384 ± 0.032 mPa·s
298.15 K, x2 = 0.8445
  viscosity: 5.757 ± 0.034 mPa·s
298.15 K, x2 = 0.895
  viscosity: 6.219 ± 0.036 mPa·s
298.15 K, x2 = 0.9529
  viscosity: 6.86 ± 0.039 mPa·s
303.15 K, x2 = 0
  viscosity: 2.706 ± 0.017 mPa·s
  speed of sound: 1320 ± 0.8 m/s
  mass density: 766.981 ± 0.42 kg/m3
303.15 K, x2 = 0.0461
  viscosity: 2.748 ± 0.017 mPa·s
  speed of sound: 1318.4 ± 0.8 m/s
  mass density: 768.09 ± 0.42 kg/m3
303.15 K, x2 = 0.1039
  viscosity: 2.741 ± 0.017 mPa·s
  speed of sound: 1317.1 ± 0.8 m/s
  mass density: 769.605 ± 0.42 kg/m3
303.15 K, x2 = 0.1547
  viscosity: 2.728 ± 0.017 mPa·s
  speed of sound: 1316.1 ± 0.8 m/s
  mass density: 771.039 ± 0.42 kg/m3
303.15 K, x2 = 0.1944
  viscosity: 2.728 ± 0.017 mPa·s
  speed of sound: 1315.8 ± 0.8 m/s
  mass density: 772.218 ± 0.42 kg/m3
303.15 K, x2 = 0.2685
  viscosity: 2.773 ± 0.017 mPa·s
  speed of sound: 1315.3 ± 0.8 m/s
  mass density: 774.63 ± 0.42 kg/m3
303.15 K, x2 = 0.3383
  viscosity: 2.881 ± 0.018 mPa·s
  speed of sound: 1315.1 ± 0.8 m/s
  mass density: 777.145 ± 0.42 kg/m3
303.15 K, x2 = 0.4099
  viscosity: 3.041 ± 0.019 mPa·s
  speed of sound: 1314.9 ± 0.8 m/s
  mass density: 779.937 ± 0.42 kg/m3
303.15 K, x2 = 0.4981
  viscosity: 3.307 ± 0.02 mPa·s
  speed of sound: 1315.3 ± 0.8 m/s
  mass density: 783.781 ± 0.42 kg/m3
303.15 K, x2 = 0.6017
  viscosity: 3.681 ± 0.022 mPa·s
  speed of sound: 1316.2 ± 0.8 m/s
  mass density: 788.911 ± 0.42 kg/m3
303.15 K, x2 = 0.6927
  viscosity: 4.086 ± 0.025 mPa·s
  speed of sound: 1317.9 ± 0.8 m/s
  mass density: 794.075 ± 0.42 kg/m3
303.15 K, x2 = 0.7963
  viscosity: 4.663 ± 0.028 mPa·s
  speed of sound: 1320.9 ± 0.8 m/s
  mass density: 800.846 ± 0.42 kg/m3
303.15 K, x2 = 0.8445
  viscosity: 4.992 ± 0.03 mPa·s
  speed of sound: 1322.6 ± 0.8 m/s
  mass density: 804.438 ± 0.42 kg/m3
303.15 K, x2 = 0.895
  viscosity: 5.383 ± 0.032 mPa·s
  speed of sound: 1324.9 ± 0.8 m/s
  mass density: 808.561 ± 0.42 kg/m3
303.15 K, x2 = 0.9529
  viscosity: 5.883 ± 0.034 mPa·s
  speed of sound: 1327.9 ± 0.8 m/s
  mass density: 813.871 ± 0.42 kg/m3
308.15 K, x2 = 0
  viscosity: 2.409 ± 0.015 mPa·s
  speed of sound: 1301.7 ± 0.8 m/s
  mass density: 763.52 ± 0.42 kg/m3
308.15 K, x2 = 0.0461
  viscosity: 2.402 ± 0.015 mPa·s
  speed of sound: 1299.9 ± 0.8 m/s
  mass density: 764.586 ± 0.42 kg/m3
308.15 K, x2 = 0.1039
  viscosity: 2.399 ± 0.015 mPa·s
  speed of sound: 1298.7 ± 0.8 m/s
  mass density: 766.078 ± 0.42 kg/m3
308.15 K, x2 = 0.1547
  viscosity: 2.406 ± 0.015 mPa·s
  speed of sound: 1297.7 ± 0.8 m/s
  mass density: 767.495 ± 0.42 kg/m3
308.15 K, x2 = 0.1944
  viscosity: 2.419 ± 0.015 mPa·s
  speed of sound: 1297.4 ± 0.8 m/s
  mass density: 768.68 ± 0.42 kg/m3
308.15 K, x2 = 0.2685
  viscosity: 2.473 ± 0.015 mPa·s
  speed of sound: 1296.9 ± 0.8 m/s
  mass density: 771.077 ± 0.42 kg/m3
308.15 K, x2 = 0.3383
  viscosity: 2.561 ± 0.016 mPa·s
  speed of sound: 1296.8 ± 0.8 m/s
  mass density: 773.575 ± 0.42 kg/m3
308.15 K, x2 = 0.4099
  viscosity: 2.688 ± 0.017 mPa·s
  speed of sound: 1296.8 ± 0.8 m/s
  mass density: 776.383 ± 0.42 kg/m3
308.15 K, x2 = 0.4981
  viscosity: 2.896 ± 0.018 mPa·s
  speed of sound: 1297.2 ± 0.8 m/s
  mass density: 780.228 ± 0.42 kg/m3
308.15 K, x2 = 0.6017
  viscosity: 3.218 ± 0.02 mPa·s
  speed of sound: 1298.4 ± 0.8 m/s
  mass density: 785.346 ± 0.42 kg/m3
308.15 K, x2 = 0.6927
  viscosity: 3.554 ± 0.022 mPa·s
  speed of sound: 1300.2 ± 0.8 m/s
  mass density: 790.488 ± 0.42 kg/m3
308.15 K, x2 = 0.7963
  viscosity: 4.008 ± 0.024 mPa·s
  speed of sound: 1303.4 ± 0.8 m/s
  mass density: 797.284 ± 0.42 kg/m3
308.15 K, x2 = 0.8445
  viscosity: 4.251 ± 0.026 mPa·s
  speed of sound: 1305.3 ± 0.8 m/s
  mass density: 800.882 ± 0.42 kg/m3
308.15 K, x2 = 0.895
  viscosity: 4.54 ± 0.027 mPa·s
  speed of sound: 1307.8 ± 0.8 m/s
  mass density: 805.017 ± 0.42 kg/m3
308.15 K, x2 = 0.9529
  viscosity: 4.944 ± 0.03 mPa·s
  speed of sound: 1310.9 ± 0.8 m/s
  mass density: 810.331 ± 0.42 kg/m3

## CCCCCCCCO [octan-1-ol] + CCCCCCCCCCCCCCCC
293.15 K, x1 = 1
  speed of sound: 1348 ± 0.8 m/s
  mass density: 821.813 ± 0.42 kg/m3
298.15 K, x1 = 1
  viscosity: 7.508 ± 0.042 mPa·s
303.15 K, x1 = 1
  viscosity: 6.344 ± 0.036 mPa·s
  speed of sound: 1330.8 ± 0.8 m/s
  mass density: 818.796 ± 0.42 kg/m3
308.15 K, x1 = 1
  viscosity: 5.363 ± 0.032 mPa·s
  speed of sound: 1314.1 ± 0.8 m/s
  mass density: 815.286 ± 0.42 kg/m3

Source: the NIST ThermoML archive (doi:10.1007/s10765-008-0491-0)
